{"source": "PubChem BioAssay AID1259407", "about": "(Chemical Carcinogenesis Research Information System (CCRIS), 2018)", "test_system": "CCRIS mutagenicity, Ames/micronucleus/aberration tests", "assay": "CCRIS mutagenicity studies", "key": {"[1]": {"conditions": "Test System: AMES SALMONELLA TYPHIMURIUM, Strain/Indicator: TA98, Metabolic Activation: NONE, Method: STANDARD PLATE"}, "[2]": {"conditions": "Test System: AMES SALMONELLA TYPHIMURIUM, Strain/Indicator: TA98, Metabolic Activation: RAT, LIVER, S-9, AROCLOR 1254, Method: STANDARD PLATE"}, "[3]": {"conditions": "Test System: AMES SALMONELLA TYPHIMURIUM, Strain/Indicator: TA100, Metabolic Activation: NONE, Method: STANDARD PLATE"}, "[4]": {"conditions": "Test System: AMES SALMONELLA TYPHIMURIUM, Strain/Indicator: TA100, Metabolic Activation: RAT, LIVER, S-9, AROCLOR 1254, Method: STANDARD PLATE"}}, "note": "Active and inactive are the calls of the source. The rule behind the calls is not given here.", "data": [{"smiles": "c1ccc2c(c1)ccc1c3ccccc3ccc21", "values": [{"measurement": "mutagenic call", "setting": "Test System: AMES SALMONELLA TYPHIMURIUM, Strain/Indicator: TA97, Metabolic Activation: NONE, Method: STANDARD PLATE", "result": "inactive; negative"}, {"measurement": "mutagenic call", "setting": "Test System: AMES SALMONELLA TYPHIMURIUM, Strain/Indicator: TA97, Metabolic Activation: RAT, LIVER, S-9, PCB, Method: STANDARD PLATE", "result": "active; positive"}, {"measurement": "mutagenic call", "setting": "[1]", "result": "inactive; negative"}, {"measurement": "mutagenic call", "setting": "[2]", "result": "active; positive"}, {"measurement": "mutagenic call", "setting": "Test System: AMES SALMONELLA TYPHIMURIUM, Strain/Indicator: TA98, Metabolic Activation: RAT, LIVER, S-9, PCB, Method: STANDARD PLATE", "result": "active; positive"}, {"measurement": "mutagenic call", "setting": "[3]", "result": "inactive; negative"}, {"measurement": "mutagenic call", "setting": "Test System: AMES SALMONELLA TYPHIMURIUM, Strain/Indicator: TA100, Metabolic Activation: POOLED HUMAN LIVER MICROSOMES, Method: PREINCUBATION", "result": "inactive; negative"}, {"measurement": "mutagenic call", "setting": "Test System: AMES SALMONELLA TYPHIMURIUM, Strain/Indicator: TA100, Metabolic Activation: RAT, LIVER, MICROSOMES, AROCLOR 1254, Method: STANDARD PLATE", "result": "active; positive"}, {"measurement": "mutagenic call", "setting": "Test System: AMES SALMONELLA TYPHIMURIUM, Strain/Indicator: TA100, Metabolic Activation: RAT, LIVER, MICROSOMES, CHRYSENE, Method: STANDARD PLATE", "result": "inactive; negative"}, {"measurement": "mutagenic call", "setting": "Test System: AMES SALMONELLA TYPHIMURIUM, Strain/Indicator: TA100, Metabolic Activation: RAT, LIVER, MICROSOMES, Method: STANDARD PLATE", "result": "inactive; negative"}, {"measurement": "mutagenic call", "setting": "[4]", "result": "active; positive"}, {"measurement": "mutagenic call", "setting": "Test System: AMES SALMONELLA TYPHIMURIUM, Strain/Indicator: TA100, Metabolic Activation: RAT, LIVER, S-9, PCB, Method: STANDARD PLATE", "result": "active; positive"}, {"measurement": "mutagenic call", "setting": "Test System: AMES SALMONELLA TYPHIMURIUM, Strain/Indicator: TA100, Metabolic Activation: RAT, LIVER, S-9, PHENOBARBITAL AND 5,6-BENZOFLAVONE, Method: PREINCUBATION", "result": "active; positive"}, {"measurement": "mutagenic call", "setting": "Test System: CHINESE HAMSTER OVARY, Strain/Indicator: CHO-K1-BH4 (HGPRT)/6-THIOGUANINE, Metabolic Activation: NONE, Method: STANDARD PLATE", "result": "inactive; negative"}, {"measurement": "mutagenic call", "setting": "Test System: CHINESE HAMSTER OVARY, Strain/Indicator: CHO-K1-BH4 (HGPRT)/6-THIOGUANINE, Metabolic Activation: RAT, LIVER, S-9, AROCLOR 1254, Method: STANDARD PLATE", "result": "active; positive"}, {"measurement": "mutagenic call", "setting": "Test System: CHINESE HAMSTER OVARY, Strain/Indicator: CHO-UV5 (HGPRT)/6-THIOGUANINE, Metabolic Activation: NONE, Method: STANDARD PLATE", "result": "inactive; negative"}, {"measurement": "mutagenic call", "setting": "Test System: CHINESE HAMSTER OVARY, Strain/Indicator: CHO-UV5 (HGPRT)/6-THIOGUANINE, Metabolic Activation: RAT, LIVER, S-9, AROCLOR 1254, Method: STANDARD PLATE", "result": "active; positive"}, {"measurement": "mutagenic call", "setting": "Test System: LACZ TRANSGENIC MOUSE (MUTATM MOUSE), Strain/Indicator: LACZ MUTANT FREQUENCY, Method: LIVER, SPLEEN, LUNG, KIDNEY, BONE MARROW, COLON HARVESTED 7 D AFTER LAST DOSE, DNA ISOLATED", "result": "active; positive; g:c to t:a transversions in all organs"}]}, {"smiles": "CCOP(=O)(OCC)O/C(=C/Br)c1ccc(Cl)cc1Cl", "values": [{"measurement": "mutagenic call", "setting": "[1]", "result": "inactive; negative"}, {"measurement": "mutagenic call", "setting": "[2]", "result": "inactive; negative"}, {"measurement": "mutagenic call", "setting": "[3]", "result": "inactive; negative"}, {"measurement": "mutagenic call", "setting": "[4]", "result": "inactive; negative"}, {"measurement": "mutagenic call", "setting": "Test System: AMES SALMONELLA TYPHIMURIUM, Strain/Indicator: TA1535, Metabolic Activation: NONE, Method: STANDARD PLATE", "result": "inactive; negative"}, {"measurement": "mutagenic call", "setting": "Test System: AMES SALMONELLA TYPHIMURIUM, Strain/Indicator: TA1535, Metabolic Activation: RAT, LIVER, S-9, AROCLOR 1254, Method: STANDARD PLATE", "result": "inactive; negative"}, {"measurement": "mutagenic call", "setting": "Test System: AMES SALMONELLA TYPHIMURIUM, Strain/Indicator: TA1537, Metabolic Activation: NONE, Method: STANDARD PLATE", "result": "inactive; negative"}, {"measurement": "mutagenic call", "setting": "Test System: AMES SALMONELLA TYPHIMURIUM, Strain/Indicator: TA1537, Metabolic Activation: RAT, LIVER, S-9, AROCLOR 1254, Method: STANDARD PLATE", "result": "inactive; negative"}, {"measurement": "mutagenic call", "setting": "Test System: AMES SALMONELLA TYPHIMURIUM, Strain/Indicator: TA1538, Metabolic Activation: NONE, Method: STANDARD PLATE", "result": "inactive; negative"}, {"measurement": "mutagenic call", "setting": "Test System: AMES SALMONELLA TYPHIMURIUM, Strain/Indicator: TA1538, Metabolic Activation: RAT, LIVER, S-9, AROCLOR 1254, Method: STANDARD PLATE", "result": "inactive; negative"}]}, {"smiles": "O=C1OC(CN2CCOCC2)CN1/N=C/c1ccc([N+](=O)[O-])o1", "note": "(configuration not stated)", "values": [{"measurement": "mutagenic call", "setting": "Test System: E. COLI, Strain/Indicator: WP2, Metabolic Activation: NONE, Method: SPOT", "result": "active; positive"}, {"measurement": "mutagenic call", "setting": "Test System: E. COLI, Strain/Indicator: WP2 UVRA, Metabolic Activation: NONE, Method: SPOT", "result": "active; positive"}, {"measurement": "mutagenic call", "setting": "Test System: E. COLI, Strain/Indicator: WP2 UVRA, Metabolic Activation: NONE, Method: STANDARD PLATE", "result": "active; positive"}]}, {"smiles": "c1cc2sncc2cc1OCC1CO1", "note": "(configuration not stated)", "values": [{"measurement": "mutagenic call", "setting": "Test System: AMES SALMONELLA TYPHIMURIUM, Strain/Indicator: TA100, Metabolic Activation: S-9, Method: STANDARD PLATE", "result": "active; positive"}]}]}
